From PMC9027532, “Preclinical Pharmacokinetic Studies of a Novel Diuretic Inhibiting Urea Transporters” (Molecules, 2022)

Assay: in vitro
Type: in vitro ADME
Settings: plasma
Method: The plasma protein binding (PPB) and blood plasma ratio (BPR) are crucial parameters influencing the drug distribution and elimination in plasma. The PPB profile of 25a was evaluated by equilibrium dialysis, a classic method to assess the interactions of small molecules with proteins. The PPB of 25a was tested at 50, 500, and 2500 ng/mL (Table 7). […] When considering the allometric scaling of PK parameters, the species difference of protein binding between humans and rats should be considered.
The plasma protein binding (PPB) ratio of 25a was assessed via equilibrium dialysis in SD rats and human plasma. Four hundred microliters of plasma containing 50, 500, or 2500 ng/mL 25a were loaded into the dialysis bags (plasma side), and the bags were placed into tubes containing 4 mL of the dialysis buffer (buffer side). The tubes were then rotated at approximately 100 rpm in a humidified incubator with 5% CO2 at 37 ± 1 °C for 5 h.
After the 5 h dialysis, aliquots of 50 μL samples were taken from both the buffer and the plasma sides. An equal volume of the opposite blank matrix (buffer or plasma) was added to each sample to reach a final volume of 100 μL with a volume ratio of plasma to dialysis buffer at 1:1 (v/v). […] The PPB ratio (%) was calculated by PPB% = 100% × (1 − Conc.buffer side/Conc.plasma side).

With `CC(=O)CC(c1ccccc1)c1c(O)c2ccccc2oc1=O` (stereo not shown) [warfarin] as the molecule, how does the fraction unbound at 5 h read?
The fraction unbound at 5 h was 0.015.
